Source: patent US12133895B2, “Biodegradable functional polycarbonate nanoparticle carries for delivering molecular cargo” (International Business Machines Corporation, priority 2018, dated 2024)

Assay: Oxidation (discoloration) of AMP in PBS
Type: physicochemical
Conditions: free AMP dissolved in PBS
Source text: FIG. 10 illustrates a diagram of example, non-limiting photos 1000 of a first solution of free AMP and a second solution of the second loaded polymer 602 having the exemplary structure depicted in FIG. 6 (e.g., conjugated with AMP) in accordance with one or more embodiments described herein. Repetitive description of like elements employed in other embodiments described herein is omitted for sake of brevity. As shown in the photos 1000, the right vial contains free AMP dispersed in PBS, and the left vial contains of the second loaded polymer 602 having the exemplary structure depicted in FIG. 6 (e.g., conjugated with AMP) dispersed in PBS. The various photos 1000 can show the state of the two solutions over a 360 minute time period.
Both solutions begin colorless, wherein the solutions become discolored in response to oxidation.

Structure (SMILES): CN1CCc2cccc3c2[C@H]1Cc1ccc(O)c(O)c1-3 [AMP, apomorphine]
- onset of oxidation: nearly immediately
